Assay results reported in patent US12522594B2, “2-heteroaryl-3-oxo-2,3-dihydropyridazine-4-carboxamides for the treatment of cancer” (Deutsches Krebsforschungszentrum, priority 2017, dated 2026).

Assays:
AHR [1] = target: T1, AHR (Homo sapiens, UniProt P35869); test: In vitro assay 1: antagonism in human cell line (transactivation assay, U87 cells prestimulated with kynurenic acid, DRE firefly luciferase reporter); format: cell-based; parameters: host or cells: U87 glioblastoma cells, stably transfected with DRE firefly luciferase and renilla reporter constructs; settings: 150 uM kynurenic acid, 20 hours, read-out: Assay 1: AHR-luc Hum Antagonism IC50
T1 sequence (P35869 11-848): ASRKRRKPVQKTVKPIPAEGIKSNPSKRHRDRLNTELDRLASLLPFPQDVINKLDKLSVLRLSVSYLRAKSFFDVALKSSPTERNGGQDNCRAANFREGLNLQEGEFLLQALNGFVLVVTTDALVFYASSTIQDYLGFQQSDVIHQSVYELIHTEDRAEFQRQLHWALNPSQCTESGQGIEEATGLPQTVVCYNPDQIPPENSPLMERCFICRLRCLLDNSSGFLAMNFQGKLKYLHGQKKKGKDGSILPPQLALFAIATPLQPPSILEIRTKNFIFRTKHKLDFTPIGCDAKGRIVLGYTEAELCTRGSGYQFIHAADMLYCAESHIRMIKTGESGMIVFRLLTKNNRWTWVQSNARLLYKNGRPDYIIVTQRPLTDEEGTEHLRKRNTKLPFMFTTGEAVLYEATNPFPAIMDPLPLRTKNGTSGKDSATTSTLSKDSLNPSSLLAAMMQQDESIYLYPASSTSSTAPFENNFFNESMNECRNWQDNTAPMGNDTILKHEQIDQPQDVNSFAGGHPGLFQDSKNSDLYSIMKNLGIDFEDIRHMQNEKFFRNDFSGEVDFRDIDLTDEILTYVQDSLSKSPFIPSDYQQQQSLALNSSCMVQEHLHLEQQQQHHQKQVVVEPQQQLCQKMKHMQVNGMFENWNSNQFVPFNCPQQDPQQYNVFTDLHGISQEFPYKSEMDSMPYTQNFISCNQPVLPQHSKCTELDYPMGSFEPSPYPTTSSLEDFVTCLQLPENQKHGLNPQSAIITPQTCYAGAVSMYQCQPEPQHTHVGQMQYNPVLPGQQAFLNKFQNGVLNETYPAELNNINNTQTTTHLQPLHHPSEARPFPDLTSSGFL
Description: (§1) Transactivation Assay in Human Cell Line (In Vitro Assays 1 and 2)
(§2) Transactivation assays were carried out in U87 glioblastoma cells (ATCC) endogenously expressing AHR. In addition the cells were stably transfected with an AHR inducible firefly luciferase reporter gene construct that carried AHR-binding sites (DRE) in its promoter and a renilla reporter gene construct with constitutively active promoter. Kynurenic acid is an endogenous AHR activating ligand and was used to prestimulate test cells prior to testing the antagonistic properties of compounds.
In Vitro Assay 1: Antagonism in Human Cell Line
Normalization was done by positive and negative controls.

AHR [2] = target: T1, AHR; test: In vitro assay 2: agonism in human cell line (transactivation assay, U87 cells, DRE firefly luciferase reporter); format: cell-based; parameters: host or cells: U87 glioblastoma cells, stably transfected with DRE firefly luciferase and renilla reporter constructs; settings: no kynurenic acid, 20 hours, read-out: Assay 2: AHR-luc Hum Agonism IC50
Description: as §1, §2
In Vitro Assay 2: Agonism in Human Cell Line
As positive activation control cells were incubated with 300 uM kynurenic acid. Normalization was done by positive and negative controls.

| SMILES | IC50 (AHR [1]) [nM] | IC50 (AHR [2]) [µM] |
| --- | --- | --- |
| O=C(N[C@H]1COC[C@H]1O)c1cc(-c2ccc(Cl)cc2)nn(-c2cccnc2)c1=O (racemic) [Example 171, rac-6-(4-chlorophenyl)-N-[(cis)-4-hydroxytetrahydrofuran-3-yl]-3-oxo-2-(pyridin-3-yl)-2,3-dihydropyridazine-4-carboxamide] | 58.4 | > 20 |
| Cn1cc(-n2nc(-c3ccc(OC(F)(F)F)cc3)cc(C(=O)N[C@@H]3COC[C@H]3O)c2=O)cn1 (single isomer, unassigned; enantiomer 1) [Example 64, N-[(trans)-4-Hydroxytetrahydrofuran-3-yl]-2-(1-methyl-1H-pyrazol-4-yl)-3-oxo-6-[4-(trifluoromethoxy)phenyl]-2,3-dihydropyridazine-4-carboxamide, Enantiomer 1] | 81.6 | > 20 |
| O=C(N[C@@H]1COC[C@@H]1O)c1cc(-c2ccc(C(F)(F)F)cc2)nn(-c2cccnc2)c1=O (single isomer, unassigned) [Example 252, (−)-N-cis-4-Hydroxytetra-hydrofuran-3-yl-3-oxo-2-(pyridin-3-yl)-6-[4-(trifluoromethyl)phenyl]-2,3-dihydropyridazine-4-carboxamide] | 18 | – |
| CC(NC(=O)c1cc(-c2ccc(Cl)cc2)nn(-c2cccnc2)c1=O)C(O)C(F)(F)F (single isomer, unassigned) [Example 300, 6-(4-Chlorophenyl)-3-oxo-2-(pyridin-3-yl)-N-(4,4,4-trifluoro-3-hydroxybutan-2-yl)-2,3-dihydropyridazine-4-carboxamide] | – | > 20 |
| O=C(NCC(O)C(F)(F)F)c1cc(-c2ccc(C(F)(F)F)cc2)nn(-c2cccnc2)c1=O (racemic) [Example 108, 3-Oxo-2-(pyridin-3-yl)-N-[(2RS)-3,3,3-trifluoro-2-hydroxypropyl]-6-[4-(trifluoromethyl)phenyl]-2,3-dihydropyridazine-4-carboxamide] | – | > 20 |
| O=C(NC[C@H](O)C(F)(F)F)c1cc(-c2ccc(C(F)(F)F)cc2)nn(-c2cccnc2)c1=O [Example 117, 3-Oxo-2-(pyridin-3-yl)-N-[(2S)-3,3,3-trifluoro-2-hydroxypropyl]-6-[4-(trifluoromethyl)phenyl]-2,3-dihydropyridazine-4-carboxamide] | – | > 20 |

The remaining lines, values ahead:

| IC50 (AHR [1]) [nM] | IC50 (AHR [2]) [µM] | SMILES |
| --- | --- | --- |
| 81 | > 20 | Cn1cc(-n2nc(-c3ccc(OC(F)(F)F)cc3)cc(C(=O)N[C@@H]3COC[C@H]3O)c2=O)cn1 (racemic) [Example 63, N-[(trans)-4-Hydroxytetrahydrofuran-3-yl]-2-(1-methyl-1H-pyrazol-4-yl)-3-oxo-6-[4-(trifluoromethoxy)phenyl]-2,3-dihydropyridazine-4-carboxamide] |
| 242 | > 20 | C[C@@H](NC(=O)c1cc(-c2ccc(Cl)cc2)nn(-c2cn[nH]c2)c1=O)C(C)(C)O [Example 325, 6-(4-Chlorophenyl)-N-[(2R)-3-hydroxy-3-methylbutan-2-yl]-3-oxo-2-(1H-pyrazol-4-yl)-2,3-dihydropyridazine-4-carboxamide] |
| 180 | – | C[C@@H](CO)NC(=O)c1cc(-c2ccc(C(F)(F)F)nc2)nn(-c2cccnc2)c1=O [Example 166, N-[(2S)-1-Hydroxypropan-2-yl]-3-oxo-2-(pyridin-3-yl)-6-[6-(trifluoromethyl)pyridin-3-yl]-2,3-dihydropyridazine-4-carboxamide] |
| – | > 20 | O=C(N[C@H]1CCCC[C@H]1O)c1cc(-c2ccc(C(F)(F)F)cc2)nn(-c2cccnc2)c1=O [Example 106, N-[(1S,2R)-2-Hydroxycyclohexyl]-3-oxo-2-(pyridin-3-yl)-6-[4-(trifluoromethyl)phenyl]-2,3-dihydropyridazine-4-carboxamide] |
| 240 | – | O=C(N[C@H]1COC[C@@H]1O)c1cc(-c2ccc(Cl)cc2)nn(-c2cccnc2)c1=O (relative stereo) [Example 168, 6-(4-Chlorophenyl)-N-[(trans)-4-hydroxytetrahydrofuran-3-yl]-3-oxo-2-(pyridin-3-yl)-2,3-dihydropyridazine-4-carboxamide] |
